# Data: BindingDB's records for doi:10.1074/jbc.M113.496463 (National Institutes of Health, National Institutes of …, 2013)
# Where “and” joins values, the source holds several entries; their conditions need not be identical. Identical values can stand only once.
# Tests used:
# [1] = target: T1, ATP-dependent DNA helicase DinG (Escherichia coli (strain K12), UniProt P27296); test: Helicase Assays; settings: pH 8
# T1 sequence (P27296 whole entry): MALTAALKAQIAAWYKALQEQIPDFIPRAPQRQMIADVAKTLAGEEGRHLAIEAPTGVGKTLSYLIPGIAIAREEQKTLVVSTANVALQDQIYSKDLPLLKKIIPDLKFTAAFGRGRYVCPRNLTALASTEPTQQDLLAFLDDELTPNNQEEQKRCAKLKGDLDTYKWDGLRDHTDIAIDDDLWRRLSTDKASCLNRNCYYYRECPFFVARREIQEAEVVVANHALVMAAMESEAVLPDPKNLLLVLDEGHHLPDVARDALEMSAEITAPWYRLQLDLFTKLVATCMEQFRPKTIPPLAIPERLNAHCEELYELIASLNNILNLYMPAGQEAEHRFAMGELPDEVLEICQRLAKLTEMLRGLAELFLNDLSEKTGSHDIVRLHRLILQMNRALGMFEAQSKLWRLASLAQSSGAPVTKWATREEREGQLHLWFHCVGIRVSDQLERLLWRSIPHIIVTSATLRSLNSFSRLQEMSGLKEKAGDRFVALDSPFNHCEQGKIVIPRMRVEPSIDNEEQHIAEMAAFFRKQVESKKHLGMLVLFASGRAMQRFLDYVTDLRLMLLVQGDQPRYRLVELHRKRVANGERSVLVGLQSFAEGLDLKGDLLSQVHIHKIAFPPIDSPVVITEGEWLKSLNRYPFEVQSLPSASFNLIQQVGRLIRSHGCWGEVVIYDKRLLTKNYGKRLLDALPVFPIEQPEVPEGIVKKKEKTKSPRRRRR
# Description: (§1) Standard helicase reaction mixtures (20μl) containing 5 fmol of the indicated TP-G4 or OX-1-G2' DNA substrates or forked duplex DNA substrate (0.25 nM DNA substrate concentration), 1mM ATP, and the indicated concentrations of the specified helicase were as previously described for FANCJ [Wu et al., Mol. Cell. Biol., 28:4116-4128] and DDX11 [Wu et al., J. Biol. Chem., 287:1007-1021]. Helicase reactions for XPD and DinG were performed in buffer that contained 20mM Tris-HCl (pH 8.0), 10mM KCl, 1mM dithiothreitol, 5mM MgCl2, and 100 μg/ml BSA. Reactions were performed at 37 °C for 15 min in the presence of 1 mM ATP, the DNA substrates mentioned above, and the indicated helicase protein concentrations. Forthe unimolecular Poly(A) Zic1-G4 DNA substrate, helicase reactions were performed in reaction buffer containing a 20-fold excess of peptide-nucleic acid complementary oligonucleotide [Giri et al., Nucleic Acids Res., 39:7161-7178]. G4 helicase reactions were terminated by th
# [2] = target: T2, Fanconi anemia group J protein (Homo sapiens, UniProt Q9BX63); test: Helicase Assays; settings: pH 8
# T2 sequence (Q9BX63 whole entry): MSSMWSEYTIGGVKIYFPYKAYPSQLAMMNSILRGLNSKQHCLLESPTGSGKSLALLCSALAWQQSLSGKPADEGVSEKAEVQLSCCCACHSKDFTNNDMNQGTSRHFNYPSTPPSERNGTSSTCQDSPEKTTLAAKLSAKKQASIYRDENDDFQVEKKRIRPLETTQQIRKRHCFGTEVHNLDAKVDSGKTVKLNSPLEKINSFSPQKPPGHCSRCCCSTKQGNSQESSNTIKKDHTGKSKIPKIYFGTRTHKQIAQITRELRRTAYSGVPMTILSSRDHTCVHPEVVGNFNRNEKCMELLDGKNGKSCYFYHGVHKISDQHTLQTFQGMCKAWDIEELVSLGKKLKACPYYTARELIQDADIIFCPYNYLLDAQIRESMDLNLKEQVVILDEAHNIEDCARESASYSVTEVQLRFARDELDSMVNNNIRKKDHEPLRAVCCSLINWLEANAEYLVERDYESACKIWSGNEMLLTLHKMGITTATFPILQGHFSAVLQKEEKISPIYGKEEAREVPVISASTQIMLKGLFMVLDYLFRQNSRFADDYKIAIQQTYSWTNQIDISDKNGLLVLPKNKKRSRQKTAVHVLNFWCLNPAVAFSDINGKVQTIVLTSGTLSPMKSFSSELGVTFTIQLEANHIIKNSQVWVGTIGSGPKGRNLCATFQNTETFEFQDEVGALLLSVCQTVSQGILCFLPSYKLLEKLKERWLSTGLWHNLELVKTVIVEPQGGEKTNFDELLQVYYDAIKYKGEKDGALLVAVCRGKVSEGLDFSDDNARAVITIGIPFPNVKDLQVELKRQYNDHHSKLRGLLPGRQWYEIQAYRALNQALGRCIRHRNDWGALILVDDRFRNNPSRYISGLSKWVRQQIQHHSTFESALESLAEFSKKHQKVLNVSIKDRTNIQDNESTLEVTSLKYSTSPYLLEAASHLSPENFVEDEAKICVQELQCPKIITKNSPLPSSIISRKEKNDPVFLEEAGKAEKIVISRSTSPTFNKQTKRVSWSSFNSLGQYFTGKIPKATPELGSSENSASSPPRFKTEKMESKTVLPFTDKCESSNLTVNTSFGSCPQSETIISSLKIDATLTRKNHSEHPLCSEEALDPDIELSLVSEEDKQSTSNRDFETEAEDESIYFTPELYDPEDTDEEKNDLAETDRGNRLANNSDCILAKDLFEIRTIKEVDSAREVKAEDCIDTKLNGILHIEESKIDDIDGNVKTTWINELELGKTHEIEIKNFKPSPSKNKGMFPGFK
# Description: as §1
Compound,IC50 [1],IC50 [2]
C[n+]1ccc(-c2c3nc(c(-c4cc[n+](C)cc4)c4ccc([nH]4)c(-c4cc[n+](C)cc4)c4nc(c(-c5cc[n+](C)cc5)c5ccc2[nH]5)C=C4)C=C3)cc1,1100 nM and 1200 nM,2300 nM and 2900 nM and 4900 nM
C[n+]1cc(NC(=O)c2ccc3ccc4ccc(C(=O)Nc5cc6ccccc6[n+](C)c5)nc4c3n2)cc2ccccc21,50 nM and 130 nM,–
C[n+]1cccc2cc(NC(=O)c3ccc4ccc5ccc(C(=O)Nc6ccc7c(ccc[n+]7C)c6)nc5c4n3)ccc21 [Phen-DC6],60 nM and 55 nM,–
Cc1oc2nc1-c1nc(co1)-c1nc(co1)-c1nc(co1)-c1nc(co1)-c1nc(co1)C1=NC(CS1)c1nc-2c(C)o1 (stereo unspecified) [Telomestatin (TMS)],1.5 nM and 1 nM,2.2 nM and 1.9 nM and 2 nM
